# Experimental data from patent US6444698B1, “Application of 2,3,7,8-tetrachlorodibenzo-para-dioxin (TCDD) as a promoter blocker of cancer” (priority 1998, dated 2002).
# Several values for one entry are separate records, joined by “and”; a condition that tells them apart may be missing. Identical values can stand only once. Entries after “also recorded” stand apart in the source; their conditions may differ. Like-named read-outs stand apart in the source and are kept apart here.
# What was measured:
# [1] = tested on: male workers in 12 chemical plants; settings: most highly TCDD-exposed members of the NIOSH workforce (Steenland 1999); cited from earlier work
# [2] = tested on: Operation Ranch Hand (ORH) airmen; settings: cited from earlier work
# [3] = tested on: mouse skin; settings: cited from earlier work
# [4] = tested on: Sprague-Dawley rats; settings: cited from earlier work
# [5] = tested on: industrial cohorts; settings: cited from earlier work
# [6] = tested on: male workers in 12 chemical plants; experiment: NIOSH Study of chemical plant workers, cancer occurrence; assay type: in vivo, human
# Description: In 1994, EPA sought to regulate TCDD as a “probable” human carcinogen, using a population of 5280 male workers in 12 chemical plants, each of whom was exposed to contaminant levels of TCDD and some mix of 1000 unidentified other chemicals. Fingerhut et al. (1990). Fingerhut compared the cancer incidence in the plant workers to that expected in a national reference, and EPA concluded all the cancer incidence increases noted by Fingerhut were caused by the TCDD exposure and none were caused by exposures to other chemicals. U.S. EPA (1994). EPA's Science Advisory Board rejected the Agency's TCDD cancer claims. U.S. EPA Science Advisory Board, Review of Draft Documents: A Second Look at Dioxin (1995).
# (§1) The Seveso Study (Bertazzi et al. (1993)) is a report on cancer incidence and cancer incidence changes in the first ten years following the population's exposure to TCDD and other chemicals. Over the course of these ten years, one expects not to register the carcinogenic effects of any chemicals acting as cancer initiators and to include any effects attributable to TCDD discernible within ten years, like promotion or promotion blocking. The first ten years of the lifetime NIOSH Study offer the same advantage. Fingerhut et al. (1990).
# One of the plants (Midland) in the NIOSH Report has workers who reproduce the signature of individual cancer reductions and increases the Inventor observed in Seveso low exposure men: reductions in lung, primary liver (measured in Midland as liver) and multiple myeloma, which collectively are significant; and increases in STS and NHL, which individually are significant. The Seveso signature pattern of cancer incidence changes is present even though workers in Midland and the other 11 chemical plants were exposed to confounding chemicals which might have masked or diminished the extent of pattern confirmation. LT20406 (1990). From Steenland et al. (1999), one can estimate the TCDD level associated with the Midland plant wotkers as 105 ppt above background, or between 105 and 115 ppt.
# The specific and total cancer reductions noted in the NIOSH, Seveso, and ORH studies can be tied to specific dioxin body burden levels measured in serum. Reading Steenland et al. (1999) and Fingerhut et al. (1990) together, one can estimate a range from 3 to 10,000 ppt extra TCDD in serum in eight of the 12 NIOSH plante worker cohorts. […] Midland workers, who show the Seveso pattern of reductions of specific cancers, had 105 ppt TCDD above background, which is assumed to be 0 to 10 ppt.
# [7] = biological target: T1, aryl hydrocarbon (Ah) receptor (Homo sapiens, UniProt P35869); settings: cited from earlier work
# T1 sequence (P35869 11-848): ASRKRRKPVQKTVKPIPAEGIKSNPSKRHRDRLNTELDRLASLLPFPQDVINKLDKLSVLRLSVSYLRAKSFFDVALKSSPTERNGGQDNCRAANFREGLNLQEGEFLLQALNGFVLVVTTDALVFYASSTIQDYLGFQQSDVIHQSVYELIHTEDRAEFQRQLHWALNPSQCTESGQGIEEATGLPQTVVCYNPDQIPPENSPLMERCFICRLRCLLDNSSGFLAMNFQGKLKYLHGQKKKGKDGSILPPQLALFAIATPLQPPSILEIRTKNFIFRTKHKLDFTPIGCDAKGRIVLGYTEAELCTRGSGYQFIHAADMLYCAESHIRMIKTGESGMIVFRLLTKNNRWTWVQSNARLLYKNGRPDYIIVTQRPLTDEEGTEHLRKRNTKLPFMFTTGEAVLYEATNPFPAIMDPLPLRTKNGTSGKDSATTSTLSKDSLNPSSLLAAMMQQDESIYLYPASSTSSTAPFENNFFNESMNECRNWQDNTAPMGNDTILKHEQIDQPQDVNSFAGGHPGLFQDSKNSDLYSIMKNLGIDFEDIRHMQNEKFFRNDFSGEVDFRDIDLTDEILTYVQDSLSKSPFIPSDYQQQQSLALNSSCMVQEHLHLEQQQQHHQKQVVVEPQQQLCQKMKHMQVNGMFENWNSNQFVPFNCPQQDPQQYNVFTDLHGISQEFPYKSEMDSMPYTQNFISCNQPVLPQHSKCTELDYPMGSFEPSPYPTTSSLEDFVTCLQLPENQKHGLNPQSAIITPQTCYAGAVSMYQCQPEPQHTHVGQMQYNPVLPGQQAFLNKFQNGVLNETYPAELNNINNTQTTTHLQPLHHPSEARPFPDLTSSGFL
# [8] = tested on: Operation Ranch Hand (ORH) airmen; experiment: Operation Ranch Hand (ORH) cancer incidence and body burden analysis; assay type: in vivo, human
# Description: (§2) In addition to published and unpublished epidemiology data from the NIOSH Report (Fingerhut et al. (1990)), additional NIOSH Life Table records (LT20406 (1990)), and the Steenland et al. article (1999), the Inventor relies on Bertazzi et al.'s (Epidemiol. 4, 398-406 (1993)) cancer incidence data presentation on a residential population of men and women exposed to the lowest levels of TCDD as a result of a chemical plant explosion near Seveso, Italy, and the Inventor's own analysis of cancer incidence and body burden data in the Operation Ranch Hand (ORH) airmen exposed to TCDD as a result of service in Southeast Asia during the Vietnam War. None of the NIOSH and Seveso papers cited above claim that TCDD acts as an anti-carcinogen. The Air Force Scientists charged with developing the ORH Study also fail to observe TCDD as an anti-carcinogen. Ketchum et al. Amer. J. Epidem. 149, 630-639 (1999).
# The ORH cancer incidence data collected over 30 years has particular value, because one may compute the cancer incidence effects associated with military service in Southeast Asia in internal cohorts unexposed or virtually unexposed to TCDD and distinguish them from an internal cohort of airmen exposed to TCDD within a well calibrated body burden range.
# Kayajanian, Ecotox. Environ. Safety 46, 103-109 (2000); and Kayajanian, Ecotox. Environ. Safety (In press, 2001).
# Kayajanian (2000)(In press, 2001). One standout cancer reduction is associated with an even lower TCDD body burden level: prostate cancer in black veterans is highest at non detect TCDD levels of less than 1.25 ppt; it is reduced at body burdens between 1.25 and 4.0 ppt, and lowest above 4.00 ppt, The pattern of prostate cancer reduction in black men is significant. Kayajanian, (In press, 2001).
# [9] = tested on: residential population of men and women; experiment: Seveso Study, cancer incidence in residential population exposed to TCDD; assay type: in vivo, human
# Description: as §2, §1
# For a limited number of narrow cancer classifications, Bertazzi et al. (1993) has provided cancer incidence data stratified in five year intervals both for publication and as a courtesy to the Inventor. Kayajanian, Ecotox. Environ. Safety 42, 103-109 (1999). Fingerhut et al. (1990) also published five year cancer occurrence observations for total cancers. […] This pattern of cancer incidence reduction in the second five year interval is what one would expect if TCDD acted as a promoter blocker of the enumerated individual cancer classifications and a sufficient number of other cancers to generate a significant total cancer incidence reduction.
# The significant individual and total cancer reductions the Inventor noted from the Seveso data, whether stratified or not (Bertazzi et al. (1993)) are associated with median levels of 48 ppt TCDD. Bertazzi et al., Amer. J. Epidem. 153, 1031-1043 (2001). Measurement of TCDD levels include both men and women.
# [10] = tested on: Sprague-Dawley rats; experiment: Kociba lifetime rodent feeding study; assay type: in vivo, rat
# Protocol: EPA has sought to regulate dioxin as a carcinogen on three occassions. […] Kociba et al., Toxicol. Appl. Pharmacol. 46, 279-303 (1978). […] Kociba et al. (1978); U.S. EPA (1985); and U.S. EPA (1994).
# Kociba et al, (1978); U.S. EPA (1985 and 1994).
# To develop the Invention further, cross species comparisons are performed when no second epidemiology report is available to test the effect of TCDD exposure on women. […] Kayajanian, Regul. Toxicol. Pharmacol. 26, 134-137 (1997).
# [11] = tritiated TCDD ingested in corn oil, volunteer; cited from earlier work
# [12] = tested on: residential population of men and women; settings: cited from earlier work
# [13] = low exposure cohorts, second five years compared to first five years
structure (smiles),measurement,setting,value
"Clc1cc2c(cc1Cl)Oc1cc(Cl)c(Cl)cc1O2 [TCDD, 2,3,7,8-tetrachlorodibenzo-para-dioxin]",total cancers,[1],significant increase
same,mean TCDD level of airmen when they left Vietnam,[2],195.7 ppt
same,artificially elevated skin cancer incidence,[3]; TCDD administered simultaneously with or a day after the skin cancer initiation step,No reduction
same,artificially elevated skin cancer incidence,"[3]; very high single dose administered one to five days prior to initiation, several mice strains",significantly reduces
same,hepatocarcinogenicity,"[4]; body burden level 25,400 ppt (Safe citing Kociba)",very hepatocarcinogenic
same,liver cancer incidence,[4]; high dose female Sprague-Dawley rats fed TCDD over a lifetime,significantly elevated
same,mammary and uterine cancers,"[4]; high dose female, body burden level 25,400 ppt (Safe citing Kociba)",anti-carcinogenic
same,total cancer mortality,[5]; most highly TCDD-exposed German herbicide chemical plant workers (Flesch-Janys 1995),significant increase
same,total cancers,"[5]; separate studies of different industrial cohorts (Zober 1990, Manz 1991)",total cancer increase
same,"lung, primary liver (measured as liver) and multiple myeloma cancers","[6]; Midland plant workers, collectively significant",reductions
same,STS and NHL,"[6]; Midland plant workers, individually significant",increases
same,TCDD level associated with the Midland plant workers,[6]; including background,105-115 ppt
same,incidence of total cancers in men,"[6]; years 6-10 compared to years 1-5, Fingerhut Report",significantly less
same,binding to the aryl hydrocarbon (Ah) receptor,[7],preferentially binds
same,total cancers other than skin,"[8]; all airmen, 50 ppt (mean body burden 50-100 ppt)",significant cancer incidence reductions; also recorded: significant non skin cancer reductions
same,prostate cancer in black veterans,[8]; body burdens above 4.00 ppt,lowest
same,prostate cancer in black veterans,[8]; body burdens between 1.25 and 4.0 ppt,reduced
same,skin cancer incidence,"[8]; non black airmen, 100 ppt (mean body burden 50-100 ppt)",significant cancer incidence reductions; also recorded: significant skin cancer reductions
same,prostate cancer in black veterans,[8]; non detect TCDD levels of less than 1.25 ppt,highest
same,mean TCDD body burden levels at which significant cancer incidence reductions are observed,[8]; skin and total cancers other than skin,50-100 ppt
same,lung and multiple myeloma cancer incidence in men,[9]; compared to the outside reference over the entire ten year period,significantly or notably reduced
same,incidence of soft tissue sarcoma (STS) and non Hodgkins lymphoma (NHL),"[9]; low exposure adults (men plus women), second five years compared to first five years",significantly increased
same,corpus uteri cancer incidence in women,[9]; [13],significant cancer incidence reduction
same,primary liver cancer incidence in men,[9]; [13],significant cancer incidence reduction
same,total cancer incidence in women,[9]; [13],significant cancer incidence reduction
same,"percentagewise cancer incidence reduction, men versus women",[9]; lowest study exposure,to a greater extent in men than in women
same,total cancers,"[10]; each sex, low and mid dose TCDD levels of 540 and 5100 ppt in liver tissue",significant reduction
same,total cancers,"[10]; low dose female rats, p<0.01",significantly reduced
same,uterine cancers,"[10]; low dose female rats, p<0.06",significantly reduced
same,liver cancer incidence,"[10]; low dose, each sex, significant in the males",reduction
same,"percentagewise cancer incidence reduction, male versus female rats",[10]; lowest study exposure,in male rats to a greater extent than in female rats
same,cancers at multiple tissue sites and overall,"[10]; male and female rats, TCDD body burdens of 540 and 5100 ppt",reduction
same,label retention,[11],87%
same,total cancers,"[12]; Italian men from Seveso, pooled two highest exposed cohorts, over twenty years (Bertazzi 2001)",significant increase
same,median TCDD level associated with significant individual and total cancer reductions,[12]; men and women,48 ppt and 48.0 ppt
